According to PubChem BioAssay (NCI):
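96-well plates; 48 h exposure; 5 concentrations. Endpoints by linear interpolation between flanking doses. Not reached: highest tested concentration assigned. The concentration for full growth arrest is given as TGI.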

How the values were obtained:
Experiment in all cases: NCI-60 cell line screen, 48 h
[1] = test system: HCT-15 colon
[2] = test system: HOP-62 NSCLC
[3] = test system: OVCAR-5 ovarian
[4] = test system: LXFL 529 NSCLC
[5] = test system: KM20L2 colon
[6] = test system: SF-268 CNS
[7] = test system: M14 melanoma
[8] = test system: SNB-78 CNS
[9] = test system: DLD-1 colon
[10] = test system: ACHN renal
[11] = test system: SK-MEL-2 melanoma
[12] = test system: UACC-62 melanoma
[13] = test system: A549 NSCLC
[14] = test system: EKVX NSCLC
[15] = test system: SF-295 CNS
[16] = test system: XF 498 CNS
[17] = test system: TK-10 renal
[18] = test system: MOLT-4 leukemia
[19] = test system: 786-0 renal
[20] = test system: SNB-75 CNS
[21] = test system: LOX IMVI melanoma
[22] = test system: DMS 114 small cell lung
[23] = test system: M19-MEL melanoma
[24] = test system: NCI-H460 lung
[25] = test system: SW-620 colon
[26] = test system: DMS 273 small cell lung
[27] = test system: SR leukemia
[28] = test system: HT29 colon
[29] = test system: SN12C renal
[30] = test system: OVCAR-4 ovarian
[31] = test system: COLO 205 colon
[32] = test system: KM12 colon
[33] = test system: NCI-H226 lung
[34] = test system: RXF-631 renal
[35] = test system: IGROV1 ovarian
[36] = test system: HCC-2998 colon
[37] = test system: OVCAR-8 ovarian
[38] = test system: NCI-H23 lung
[39] = test system: NCI-H522 lung
[40] = test system: K-562 leukemia
[41] = test system: SK-MEL-28 melanoma
[42] = test system: HCT-116 colon
[43] = test system: SF-539 CNS
[44] = test system: RXF 393 renal
[45] = test system: SK-MEL-5 melanoma
[46] = test system: U251 CNS
[47] = test system: CCRF-CEM leukemia
[48] = test system: SNB-19 CNS
[49] = test system: HOP-18 NSCLC
[50] = test system: OVCAR-3 ovarian
[51] = test system: HL-60(TB) leukemia
[52] = test system: HOP-92 NSCLC
[53] = test system: RPMI-8226 leukemia
[54] = test system: SK-OV-3 ovarian
[55] = test system: UO-31 renal
[56] = test system: MALME-3M melanoma
[57] = test system: UACC-257 melanoma
[58] = test system: A498 renal
[59] = test system: CAKI-1 renal

Measured: TGI

CCC(=O)c1c(NOC2OC(COC(C)=O)C(OC(C)=O)C(OC(C)=O)C2OC(C)=O)nc(OC)n(C)c1=O (stereo not drawn)
not listed: [49] | [50] | [51] | [52] | [53] | [54] | [55] | [56] | [57] | [58] | [59]
> 100 µM: all other assays above

O=C(Nc1nc2ncn(CCNCc3ccccc3)c2c(=O)[nH]1)c1ccccc1
not listed: [16] | [18] | [38] | [48]
> 100 µM: all other assays above
